From PMC6851657 (Clinical Pharmacology and Therapeutics, 2019)
Where two headings read alike, the source gives them in different places.

Key:
[1] = molecular target: CYP3A4 (Homo sapiens, UniProt P08684); settings: in vitro phenotyping, normalized to 100%; cited from earlier work
[2] = molecular target: T1, CYP2B6 (Homo sapiens, UniProt P20813); assay: Enzyme phenotyping, intrinsic clearance by retrograde calculation; type: in vitro ADME
T1 sequence (P20813 1-491): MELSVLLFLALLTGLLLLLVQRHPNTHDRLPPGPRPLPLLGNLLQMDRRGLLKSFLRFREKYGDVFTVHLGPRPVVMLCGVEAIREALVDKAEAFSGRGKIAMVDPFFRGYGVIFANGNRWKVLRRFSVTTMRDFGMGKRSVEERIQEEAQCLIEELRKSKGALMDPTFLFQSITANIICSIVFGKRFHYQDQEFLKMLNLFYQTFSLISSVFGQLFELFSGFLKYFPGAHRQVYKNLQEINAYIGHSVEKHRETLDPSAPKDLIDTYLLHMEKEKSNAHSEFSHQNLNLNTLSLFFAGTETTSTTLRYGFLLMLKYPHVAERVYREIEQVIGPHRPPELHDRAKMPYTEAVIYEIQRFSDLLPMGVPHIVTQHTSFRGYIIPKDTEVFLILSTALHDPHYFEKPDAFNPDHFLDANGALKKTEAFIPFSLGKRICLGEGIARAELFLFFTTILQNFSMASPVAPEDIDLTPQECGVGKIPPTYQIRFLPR

[3] = ref Novartis data on file, 5, cited from earlier work
[4] = single oral 0.25 mg, observed, cited from earlier work

Sequence of CYP3A4 (P08684 whole entry): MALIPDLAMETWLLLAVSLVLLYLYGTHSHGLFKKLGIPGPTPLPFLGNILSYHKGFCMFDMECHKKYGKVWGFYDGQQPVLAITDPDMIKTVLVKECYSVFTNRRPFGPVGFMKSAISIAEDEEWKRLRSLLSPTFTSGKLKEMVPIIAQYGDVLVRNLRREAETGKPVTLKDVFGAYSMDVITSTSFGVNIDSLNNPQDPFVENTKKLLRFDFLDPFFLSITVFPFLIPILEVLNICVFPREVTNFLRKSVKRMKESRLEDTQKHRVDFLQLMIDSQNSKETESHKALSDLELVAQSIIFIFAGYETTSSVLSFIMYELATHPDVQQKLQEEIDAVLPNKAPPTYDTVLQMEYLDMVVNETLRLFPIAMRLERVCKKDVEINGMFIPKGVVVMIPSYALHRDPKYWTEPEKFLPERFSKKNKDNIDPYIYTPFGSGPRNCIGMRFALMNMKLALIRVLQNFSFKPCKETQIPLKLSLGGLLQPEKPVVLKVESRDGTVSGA

In vitro intrinsic clearance (CYP2B6) [2]: 0.733 µL/min/pmol
fmCYP2B6 ([2]; fraction metabolized): 0.004
SMILES: CCc1cc(/C(C)=N/OCc2ccc(C3CCCCC3)c(C(F)(F)F)c2)ccc1CN1CC(C(=O)O)C1 [siponimod]
contribution of CYP3A4 to metabolism [1]: 18.5%
lower total body clearance from plasma vs CYP2C9*1/*1 ([3]; CYP2C9*1/*3): 35–38%
lower total body clearance from plasma vs CYP2C9*1/*1 ([3]; CYP2C9*2/*2): 20%
lower total body clearance from plasma vs CYP2C9*1/*1 ([3]; CYP2C9*2/*3): 45–48%
lower total body clearance from plasma vs CYP2C9*1/*1 ([3]; CYP2C9*3/*3): 74%
AUCinf ([4]; CYP2C9*1/*1): 70.5 (21.2) ng·hour/mL
t1/2 ([4]; CYP2C9*1/*1): 28.1 (18.5) h
AUCinf ([4]; CYP2C9*2/*3): 144 (15.7) ng·hour/mL
Cmax ([4]; CYP2C9*2/*3): 2.45 (13.1) ng/mL
t1/2 ([4]; CYP2C9*2/*3): 50.9 (31.7) h
AUCinf ([4]; CYP2C9*3/*3): 271 (22.4) ng·hour/mL
Cmax ([4]; CYP2C9*3/*3): 2.35 (29.0) ng/mL
t1/2 ([4]; CYP2C9*3/*3): 126 (12.7) h
